Earlier results as cited in patent US8329142B2, “Compounds, compositions and methods for medical imaging of Parkinson's disease” (priority 2003, dated 2012).

Key:
Aβ(1-40) [1] = target: T1, Aβ(1-40) (Homo sapiens, UniProt P05067)
Aβ(1-28) = Aβ(1-28) (Homo sapiens, UniProt P05067); settings: computer-based molecular modeling
Aβ(1-40) [2] = target: T1, Aβ(1-40); settings: in vitro
[3] = intra-venous (IV) and oral administration

T1 sequence (P05067 672-711 limits assumed): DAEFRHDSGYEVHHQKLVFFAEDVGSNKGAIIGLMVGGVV
Chain of Aβ(1-28) (P05067 672-699): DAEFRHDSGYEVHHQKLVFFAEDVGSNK

- reduction of α-helical content of Aβ(1-40) (Aβ(1-40) [1]): 15%
- binding to Aβ(1-28) peptide site (pocket Lys28, Asp23, Lys16) (Aβ(1-28)): bind specifically
- enhancement of Aβ(1-40) aggregation (Aβ(1-40) [2]): over 400%
- brain penetration [3]: enters the brain
SMILES: [12CH3][14N+]([12CH3])([12CH3])CC[16O][31P](=[16O])([16OH])[16O]CC([16OH])C[16OH] (stereo not shown) [GPC, glycerophosphocholine]
